Legend:
[1] = biological target: T1, human RORγt (Ligand Binding Domain) (Homo sapiens, UniProt P51449); test: Fluorescence Polarization (FP) Assay; details: 100 nM human RORγt LBD, 25 nM TAMRA probe, values are activity range bounds
T1 construct: purchased Crelux (Planegg, Germany) batch no PC5032-1
T1 sequence (P51449 269-508 limits assumed): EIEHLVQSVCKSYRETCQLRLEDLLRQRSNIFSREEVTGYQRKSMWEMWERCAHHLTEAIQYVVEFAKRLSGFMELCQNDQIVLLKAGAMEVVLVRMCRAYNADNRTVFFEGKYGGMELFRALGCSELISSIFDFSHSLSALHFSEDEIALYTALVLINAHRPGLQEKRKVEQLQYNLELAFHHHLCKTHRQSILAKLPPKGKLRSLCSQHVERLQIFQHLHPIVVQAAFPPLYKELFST
In short: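 Binding to the RORγt ligand-binding domain was followed by FP. Displacement of a TAMRA-tagged RORγt ligand tracer (910 g/mol) was measured, with DMSO-only wells as negative control.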

[2] = biological target: T2, ligand binding domain of human RORγ (Homo sapiens, UniProt P51449); test: RORγ Reporter Assay (Gal4); format: cell-based; details: for inhibition at 1 µM: HEK-293T, 1 μM test compound, HEK293t RORγ reporter cells, 24 hour, read-out: Gal4 activity range @ 1 μM (% inhibition); for Gal4 activity range @ 0.1 μM (% inhibition): RORγ Reporter Assay (Gal4), HEK293t reporter cells, compound at 0.1 μM, values are activity range bounds
T2 construct: host or cells: HEK293t
T2 sequence (P51449 269-508 limits assumed): T1 sequence (P51449 269-508 limits assumed)
In short: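 HEK293t cells expressing Gal4 DBD–human RORγ LBD hybrid with Gal4-UAS firefly luciferase reporter; compounds at final 1,000 nM and 100 nM (0.1% DMSO), triplicate, medium with 10% charcoal-stripped FBS, 24 h at 37 °C. Luminescence read; percent reduction of RORγ activity calculated versus vehicle-only wells.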

[3] = system: male DBA/1J mice; test: Collagen-Induced Arthritis (CIA) Study; format: in vivo, mouse; details: 30 mg/kg, orally twice daily, therapeutic setting (from day 27 until day 41)
Excerpt: Compounds disclosed herein have also been evaluated in two different mouse in vivo disease models: Experimental Autoimmune Encephalomyelitis (EAE) model (an animal model for multiple sclerosis), and Collagen-induced Arthritis (CIA) model (an animal model for rheumatoid arthritis).
Collagen-Induced Arthritis (CIA) Study
Collagen-induced arthritis is an animal model of rheumatoid arthritis used to evaluate the efficacy of test compounds. CIA was induced at Washington Biotechnology Inc. (Baltimore) in male DBA/1J mice (Jackson Laboratories) by subcutaneous injection at the base of the tail with 50 μl of a bovine collagen/complete Freund's adjuvant emulsion. After 21 days, the mice were further boosted by a further subcutaneous injection of 50 μl of a collagen/incomplete Freund's adjuvant emulsion. For treatment, compound or vehicle (2% DMSO, 10% HP-β-CD in MilliQ water) was given orally twice daily at various doses selected from 3, 10, 30 mg/kg, beginning at the day of CIA induction (Prophylactic setting), or after disease initiation (at day 27, therapeutic setting). Treatment lasted until day 41, and the animals were scored three times weekly. Each paw was scored and the sum of all four scores was recorded as the Arthritic Index (AI). […] The Arthritis Index for each treatment can be expressed as the mean score for each treatment group+/−S.E.M.

[4] = system: female C57BL/6 mice; test: Experimental Autoimmune Encephalomyelitis (EAE) Study; format: in vivo, mouse; details: 30 mg/kg, orally twice daily, from day of EAE induction, 25 days

Row | IC50 [1] | inhibition at 1 µM [2] | Gal4 activity range @ 0.1 μM (% inhibition) [2] | SMILES | disease severity (CIA, Arthritic Index) [3] | rate of disease development (CIA) [3] | EAE clinical score [4] | onset of EAE [4]
1 | < 500 nM | > 80% | >80 % inhibition | CS(=O)(=O)N1CCC(CNc2ncnc(N(Cc3ccc(C(F)(F)F)cc3)C3CC3)c2F)CC1 [Example A7, N4-cyclopropyl-5-fluoro-N6-[(1-methylsulfonyl-4-piperidyl)methyl]-N4-[[4-(trifluoromethyl)phenyl]methyl] pyrimidine-4,6-diamine] | significantly reduce disease severity | decrease rate of disease development | significantly lower the clinical score | delay onset
2 | < 500 nM | > 80% | >50 % inhibition | CS(=O)(=O)N1CCC(C2(Nc3ncnc(N(Cc4ccc(C(F)(F)F)cc4)C4CC4)c3F)CC2)CC1 [Example A165, N6-cyclopropyl-5-fluoro-N4-[1-(1-methylsulfonyl-4-piperidyl)cyclopropyl]-N6-[[4-(trifluoromethyl)phenyl]methyl] pyrimidine-4,6-diamine] |  |  |  | 
3 | < 500 nM | > 80% | >50 % inhibition | O=C(C1CC1)N1CCC(CNc2ncnc(N(Cc3ccc(C(F)(F)F)cc3)C3CC3)c2F)CC1 [Example A167, cyclopropyl-[4-[[[6-[cyclopropyl-[[4-(trifluoromethyl)phenyl]methyl]amino]-5-fluoro-pyrimidin-4-yl]amino]methyl]-1-piperidyl]methanone] |  |  |  | 
4 | < 500 nM | > 80% | >50 % inhibition | NC(=O)Cc1ccc(CNc2ncnc(N(Cc3ccc(C(F)(F)F)cc3O)C3CC3)c2F)cc1 [Example A168, 2-[4-[[[6-[cyclopropyl-[[2-hydroxy-4-(trifluoromethyl)phenyl]methyl]amino]-5-fluoro-pyrimidin-4-yl]amino]methyl]phenyl]acetamide] |  |  |  | 
5 | < 500 nM | > 80% | >80 % inhibition | CS(=O)(=O)N1CCC2(CC1)CC2Nc1ncnc(N(Cc2ccc(C(F)(F)F)cc2)C2CC2)c1F (stereo not shown) [Example A169, N6-cyclopropyl-5-fluoro-N4-(6-methylsulfonyl-6-azaspiro[2.5]octan-2-yl)-N6-[[4-(trifluoromethyl)phenyl]methyl] pyrimidine-4,6-diamine] |  |  |  | 
6 | < 500 nM | > 50% | >20 % inhibition | NC(=O)Cc1ccc(CNc2ncnc(N(Cc3ccnc(C(F)(F)F)c3)C3CC3)c2F)cc1 [Example A170, 2-[4-[[[6-[cyclopropyl-[[2-(trifluoromethyl)-4-pyridyl]methyl]amino]-5-fluoro-pyrimidin-4-yl]amino]methyl]phenyl]acetamide] |  |  |  | 
7 | < 2000 nM | > 80% | >20 % inhibition | CS(=O)(=O)N1CCC2(CC2Nc2ncnc(N(Cc3ccc(C(F)(F)F)cc3)C3CC3)c2F)C1 (stereo not shown) [Example A172, N6-cyclopropyl-5-fluoro-N4-(6-methylsulfonyl-6-azaspiro[2.4]heptan-2-yl)-N6-[[4-(trifluoromethyl)phenyl]methyl] pyrimidine-4,6-diamine] |  |  |  | 
8 | < 500 nM | > 80% | >20 % inhibition | CS(=O)(=O)N1CC2CC2(CNc2ncnc(N(Cc3ccc(C(F)(F)F)cc3)C3CC3)c2F)C1 (stereo not shown) [Example A174, N6-cyclopropyl-5-fluoro-N4-[(3-methylsulfonyl-3-azabicyclo[3.1.0]hexan-5-yl)methyl]-N6-[[4-(trifluoromethyl)phenyl]methyl] pyrimidine-4,6-diamine] |  |  |  | 
9 | < 500 nM | > 80% | >50 % inhibition | CS(=O)(=O)N1CC2CCC(Nc3ncnc(N(Cc4ccc(C(F)(F)F)cc4)C4CC4)c3F)C2C1 (stereo not shown) [Example A175, N6-cyclopropyl-5-fluoro-N4-(2-methylsulfonyl-3,3a,4,5,6,6a-hexahydro-1H-cyclopenta[c]pyrrol-4-yl)-N6-[[4-(trifluoromethyl)phenyl]methyl] pyrimidine-4,6-diamine] |  |  |  | 
10 | < 500 nM | > 50% | >0 % inhibition | NC(=O)Cc1ccc(CNc2ncnc(N(Cc3cccc(C(F)(F)F)n3)C3CC3)c2F)cc1 [Example A176, 2-[4-[[[6-[cyclopropyl-[[6-(trifluoromethyl)-2-pyridyl]methyl]amino]-5-fluoro-pyrimidin-4-yl]amino]methyl]phenyl]acetamide] |  |  |  | 
11 | < 500 nM | > 20% | >0 % inhibition | NC(=O)Cc1ccc(CNc2ncnc(N(Cc3cc(C(F)(F)F)ccn3)C3CC3)c2F)cc1 [Example A178, 2-[4-[[[6-[cyclopropyl-[[4-(trifluoromethyl)-2-pyridyl]methyl]amino]-5-fluoro-pyrimidin-4-yl]amino]methyl]phenyl]acetamide] |  |  |  | 
12 | < 500 nM | > 80% | >20 % inhibition | NC(=O)Cc1ccc(CNc2ncnc(N(Cc3ccc(C(F)F)nc3)C3CC3)c2F)cc1 [Example A179, 2-[4-[[[6-[cyclopropyl-[[6-(difluoromethyl)-3-pyridyl]methyl]amino]-5-fluoro-pyrimidin-4-yl]amino]methyl]phenyl]acetamide] |  |  |  | 
13 | < 500 nM | > 80% | >0 % inhibition | O=C(O)C[C@@H](CCc1ccccc1)Nc1ncnc(N(Cc2ccc(C(F)(F)F)cc2)C2CC2)c1F [Example A181, (3R)-3-[[6-[cyclopropyl-[[4-(trifluoromethyl)phenyl]methyl]amino]-5-fluoro-pyrimidin-4-yl]amino]-5-phenyl-pentanoic acid] |  |  |  | 
14 | < 500 nM | > 80% | >80 % inhibition | NC(=O)Cc1ccc(Cn2ccc3c(N(Cc4ccc(C(F)(F)F)cc4)C4CC4)ncnc32)cc1 [Example I1, 2-(4-((4-(cyclopropyl (4-(trifluoromethyl)benzyl)amino)-7H-pyrrolo[2,3-d]pyrimidin-7-yl)methyl)phenyl)acetamide] |  |  |  | 
15 | < 500 nM | > 80% | >50 % inhibition | Fc1c(NCc2ccc(Cc3nnn[nH]3)cc2)ncnc1N(Cc1ccc(C(F)(F)F)cc1)C1CC1 [Example T1, N6-cyclopropyl-5-fluoro-N4-[[4-(1H-tetrazol-5-ylmethyl)phenyl]methyl]-N6-[[4-(trifluoromethyl)phenyl]methyl] pyrimidine-4,6-diamine] |  |  |  | 
16 | < 500 nM | > 50% | >20 % inhibition | O=S(=O)(CC(F)(F)F)NC1CCC(CNc2ncnc(N(Cc3ccc(C(F)(F)F)cc3)C3CC3)c2F)CC1 (stereo not shown) [x, N-[4-[[[6-[cyclopropyl-[[4-(trifluoromethyl)phenyl]methyl]amino]-5-fluoro-pyrimidin-4-yl]amino]methyl]cyclohexyl]-2,2,2-trifluoro-ethanesulfonamide] |  |  |  | 

Row | SMILES | IC50 [1] | inhibition at 1 µM [2] | Gal4 activity range @ 0.1 μM (% inhibition) [2] | disease severity (CIA, Arthritic Index) [3] | rate of disease development (CIA) [3] | EAE clinical score [4] | onset of EAE [4]
17 | CS(=O)(=O)N1[C@@H]2CC[C@H]1CC(CNc1ncnc(N(Cc3ccc(C(F)(F)F)cc3)C3CC3)c1F)C2 (stereo partly drawn) [Example A171, N6-cyclopropyl-5-fluoro-N4-[[(1S,5R)-8-methylsulfonyl-8-azabicyclo[3.2.1]octan-3-yl]methyl]-N6-[[4-(trifluoromethyl)phenyl]methyl] pyrimidine-4,6-diamine] | < 500 nM | > 80% | >80 % inhibition |  |  |  | 

— US10683293B2, “Optionally fused heterocyclyl-substituted derivatives of pyrimidine useful for the treatment of inflammatory, metabolic, oncologic and autoimmune diseases” (NUEVOLUTION A/S, priority 2014, dated 2020)
